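Method: 48-hour compound exposure of cells in 96-well plates, five concentrations, linear interpolation of endpoints. GI50 is the concentration that inhibits growth by half. The concentration for full growth arrest is given as TGI.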
Experiments:
Assay in all cases: growth of human tumour cells (NCI), 48 h
[1] = tested on: BT-549 breast
[2] = tested on: T-47D breast
[3] = tested on: MDA-MB-231 breast
[4] = tested on: MCF7 breast
[5] = tested on: MDA-N
[6] = tested on: HOP-18 NSCLC
[7] = tested on: KM20L2 colon
[8] = tested on: DMS 273 small cell lung
[9] = tested on: RXF-631 renal

Work on COc1ccc2c(c1)C(=O)c1c-2n(CCCN=[N+]=[N-])c(=O)c2cc(N(C)C)ccc12 yielded a GI50 [1] of 6.15 µM, a TGI [1] of over 100 µM and a GI50 [2] of 61.3 µM. The TGI [2] was over 100 µM, the GI50 [3] was over 100 µM and the TGI [3] was over 100 µM. It also gave a GI50 [4] of over 100 µM and a TGI [4] of over 100 µM.

Molecule CCCCCCCCCCCCCCN has a TGI [1] of over 100 µM, a TGI [2] of over 100 µM and a TGI [3] of over 100 µM. It also gave a TGI [5] of over 100 µM and a TGI [4] of over 100 µM.

CCN(CC)CCNc1ccc([N+](=O)[O-])c2sc3ccccc3c(=O)c12 gave a GI50 [1] of 1.74 µM, a TGI [1] of 7.8 µM and a GI50 [2] of 4.4 µM. The TGI [2] was 18.9 µM, the GI50 [3] was 2.29 µM and the TGI [3] was 9.15 µM. The GI50 [4] was 1.27 µM and the TGI [4] was 4.74 µM.

CCCCS(=O)CCC(N)C(=O)O (stereo not given) gave a TGI [1] of over 100 µM, a TGI [2] of over 100 µM and a TGI [3] of over 100 µM. The TGI [5] was over 100 µM and the TGI [4] was over 100 µM.

COc1ccc2c(c1)/C(=C\c1cccnc1)C(=O)N2 gave a GI50 [1] of 13.3 µM, a TGI [1] of 32.3 µM and a GI50 [2] of 13 µM. For the same molecule, the TGI [2] was 37.9 µM, the GI50 [3] was 16.3 µM and the TGI [3] was 35.5 µM. It also gave a GI50 [4] of 10.9 µM and a TGI [4] of 53.4 µM.

With CCCc1c(CC)c(=N)c2ccccc2n1C the GI50 [1] was 44.2 µM, the TGI [1] was over 100 µM and the GI50 [2] was 33 µM. The TGI [2] was over 100 µM, the GI50 [3] was over 100 µM and the TGI [3] was over 100 µM. The GI50 [4] was 30 µM and the TGI [4] was over 100 µM.

CC1CC#CCOC(=O)CCCC1=O (stereo not given) showed a TGI [6] of over 100 µM, a TGI [7] of over 100 µM and a TGI [8] of over 100 µM.

O=C(Nc1cccc([N+](=O)[O-])c1)C(=O)C(C(=O)c1ccccc1-c1ccccc1)C1OC(=O)c2ccccc21 (stereo not given) was tested, and the TGI [7] was 53.7 µM and the TGI [9] was 61.5 µM.

Molecule O=[N+]([O-])c1ccc(S(=O)Cc2ccccc2)c([N+](=O)[O-])c1 (stereo not given) has a GI50 [1] of 2.09 µM, a TGI [1] of 7.37 µM and a GI50 [2] of 1.51 µM. It also gave a TGI [2] of 3.6 µM, a GI50 [3] of 2.82 µM and a TGI [3] of 8.92 µM. It also gave a GI50 [4] of 2.48 µM and a TGI [4] of 6.96 µM.

O=C1c2ccc([N+](=O)[O-])cc2-c2c1c1ccccc1c(=O)n2CCCNCCCNCCCn1c2c(c3ccc([N+](=O)[O-])cc3c1=O)C(=O)c1ccccc1-2 gave a GI50 [1] of 4.91 µM, a TGI [1] of 37.2 µM and a GI50 [2] of 2.23 µM. The TGI [2] was 7.95 µM, the GI50 [3] was 0.407 µM and the TGI [3] was 2.85 µM. For the same molecule, the GI50 [4] was 0.961 µM and the TGI [4] was 4.55 µM.

In the case of C=C1SC(=Nc2c(C)cc(C)cc2C)N(C(=O)c2sc3ccccc3c2Cl)C12CCCCC2, the GI50 [1] is reported as over 100 µM, the TGI [1] is reported as over 100 µM and the GI50 [2] is reported as 9.69 µM. It also gave a TGI [2] of over 100 µM, a GI50 [3] of over 100 µM and a TGI [3] of over 100 µM. The GI50 [4] was over 100 µM and the TGI [4] was over 100 µM.

Work on O=C(/C=C/c1ccccc1)CC1OC(=O)c2ccccc21 (stereo not given) yielded a TGI [6] of 78.4 µM, a TGI [7] of over 100 µM and a TGI [8] of over 100 µM.

In the case of C=CC1[C@H]2COC(C)(C)O[C@@H]2CC(=O)C1(C)C (stereo not given in full), the TGI [6] is reported as over 100 µM, the TGI [7] is reported as over 100 µM and the TGI [8] is reported as over 100 µM.

For O=C([CH-]C(=O)c1ccccc1)c1ccccc1.O=C([CH-]C(=O)c1ccccc1)c1ccccc1.O=C([CH-]C(=O)c1ccccc1)c1ccccc1.[Nd+3].[OH3+], the GI50 [7] was 10.9 µM and the TGI [7] was 48 µM.

In the case of CC(=O)OCC1OC(n2c3c(c(-c4cccc5ccccc45)c(C#N)c2=S)CCCC3)C(OC(C)=O)C(OC(C)=O)C1OC(C)=O (stereo not given), the TGI [2] is reported as over 100 µM, the TGI [3] is reported as over 100 µM and the TGI [5] is reported as over 100 µM. The TGI [4] was over 100 µM.

COc1cc2c(c(OC)c1OC)-c1ccc(N)c(=O)cc1[C@@H](NC(C)=O)CC2 showed a GI50 [1] of 0.0164 µM, a TGI [1] of 0.0744 µM and a GI50 [2] of over 100 µM. For the same molecule, the TGI [2] was over 100 µM, the GI50 [4] was under 0.01 µM and the TGI [4] was over 100 µM.

COc1ccc(Nc2ncc(Br)c(NCCCNC(=O)C3CCC3)n2)cc1 gave a GI50 [1] of 3.62 µM, a TGI [1] of 15.9 µM and a GI50 [2] of 41.2 µM. The TGI [2] was 98.7 µM, the GI50 [3] was 5.06 µM and the TGI [3] was 60.3 µM. The GI50 [4] was 16.1 µM and the TGI [4] was 67.5 µM.

Work on CC[N+](C)(CC)CCC(O)(c1ccccc1)c1ccccc1 yielded a TGI [1] of over 100 µM, a TGI [2] of over 100 µM and a TGI [3] of over 100 µM. For the same molecule, the TGI [5] was over 100 µM and the TGI [4] was over 100 µM.

CC(C)=CCC/C(C)=C/CC/C(C)=C/Cc1c(O)c2ccccc2oc1=O showed a TGI [6] of over 100 µM, a TGI [7] of over 100 µM and a TGI [8] of over 100 µM.

CS(=O)(=O)OCCN1CCN(C(=O)c2cccc3c(Nc4ccc(S(=O)(=O)N=C(N)N)cc4)c4ccccc4nc23)CC1 gave a TGI [7] of over 100 µM and a TGI [8] of over 100 µM.

In the case of O=C(c1ccccc1)C1CCCCN1C(=O)c1ccccc1 (stereo not given), the TGI [6] is reported as over 100 µM, the TGI [7] is reported as over 100 µM and the TGI [8] is reported as over 100 µM.

OC1c2ccccc2C2(O)C1C(c1ccccc1)C(c1ccccc1)C2(O)c1ccccc1 (stereo not given) gave a TGI [6] of 34 µM, a TGI [7] of 22.5 µM and a TGI [8] of 23.5 µM.

For COc1ccc(-c2nc3sc(-c4ccc(Cl)cc4)cn3n2)cc1, the GI50 [1] was 43.2 µM, the TGI [1] was over 50 µM and the GI50 [2] was 3.54 µM. For the same molecule, the TGI [2] was over 50 µM, the GI50 [3] was 2.06 µM and the TGI [3] was 16.7 µM. The GI50 [4] was 2.62 µM and the TGI [4] was over 50 µM.

COc1ccc(N2Cc3cnc(Nc4ccccc4)nc3N([C@@H]3CC[C@@H](O)C3)C2=O)cc1 showed a GI50 [1] of 5.27 µM, a TGI [1] of over 25 µM and a GI50 [2] of 11.9 µM. The TGI [2] was over 25 µM, the GI50 [3] was 5.18 µM and the TGI [3] was over 22.3 µM. The GI50 [4] was 16.5 µM and the TGI [4] was over 25 µM.

COC(=O)C(C(=O)C(=O)Nc1ccc(C(F)(F)F)cc1[N+](=O)[O-])c1csc(-n2nc(-c3ccccc3)cc2-c2ccccc2)n1 (stereo not given) showed a TGI [7] of over 100 µM and a TGI [8] of over 100 µM.

In the case of CC1(C)C(=O)C(C)(C)C1=NN, the TGI [7] is reported as over 100 µM and the TGI [8] is reported as over 100 µM.

Work on C=CCN(/C=C1/C(=O)O[C@H](COC)[C@@]2(C)C1=C(O)C(=O)C1=C2[C@H](OC(C)=O)C[C@]2(C)C(=O)CC[C@@H]12)CC=C yielded a GI50 [1] of 0.141 µM, a TGI [1] of 4.12 µM and a GI50 [2] of 0.0992 µM. It also gave a TGI [2] of over 3.78 µM, a GI50 [3] of 6.23 µM and a TGI [3] of over 10 µM. The GI50 [4] was 0.435 µM and the TGI [4] was over 10 µM.

O=Cc1ccccc1OCCOc1cc(OCCOc2ccccc2C=O)c(OCCOc2ccccc2C=O)cc1OCCOc1ccccc1C=O showed a TGI [6] of over 100 µM, a TGI [7] of over 100 µM and a TGI [8] of over 100 µM.

CSC(CC(=O)O)C(=O)O (stereo not given) showed a TGI [1] of over 100 µM, a TGI [2] of over 100 µM and a TGI [3] of over 100 µM. It also gave a TGI [5] of over 100 µM and a TGI [4] of over 100 µM.

Work on C/C(=N\O)c1cccc(Nc2cc(-n3ccnn3)c3ccccc3n2)c1 yielded a GI50 [1] of 18.9 µM, a TGI [1] of 53.9 µM and a GI50 [2] of 14.9 µM. It also gave a TGI [2] of 64.9 µM, a GI50 [3] of 10.2 µM and a TGI [3] of 25.9 µM. It also gave a GI50 [4] of over 100 µM and a TGI [4] of over 100 µM.

C[C@H](NC(=O)[C@@H]1CSSC[C@@H](NC(=O)c2nc3ccccc3cc2O)C(=O)NCC(=O)N1C)c1ccccc1 gave a GI50 [1] of 6.88 µM, a TGI [1] of 16.1 µM and a GI50 [2] of 1.11 µM. The TGI [2] was 3.79 µM, the GI50 [3] was 1.94 µM and the TGI [3] was 7.84 µM. The GI50 [4] was 0.835 µM and the TGI [4] was 2.47 µM.

Source: PubChem BioAssay (NCI)
